Test results taken from patent US20250360109A1, “COMPOSITIONS AND METHODS FOR TREATING DEPRESSION IN FEMALES” (priority 2022, published 2025).

Key:
Assay type in all cases: in vivo, human
[1] = system: adult subjects with major depressive disorder (MDD); assay: Phase 2 placebo-controlled study in MDD, Clinical Global Impression-Severity (CGI-S) total score; details: Male, 20 mg/day, mITT
Method: (§1) A Phase 2, multicenter, double-blind, randomized, placebo-controlled study of the safety and efficacy of SP-624 in the treatment of adult subjects with major depressive disorder (MDD) as defined by the Diagnostic and Statistical Manual of Mental Disorders, Fifth Edition (DSM-5) was carried out. Following the successful completion of a Screening Phase, subjects were randomized to one of two treatment groups in a 1:1 ratio and received Compound 1 (SP-624) or placebo over a treatment period of four weeks (Treatment Group #1: SP-624 20 mg/day; Treatment Group #2: Placebo).
(§2) Prior to initiating the 4-week treatment period, subjects completed a Screening/Baseline period of up to 28 days, during which time all screening assessments were performed, and any current depression medications discontinued. All screening assessments were completed before discontinuing any current depression medications. Subjects returned for a Baseline Visit to complete efficacy and safety assessments. During the treatment period, subjects returned to the investigative site to complete efficacy and safety assessments at the end of Weeks 1, 2, 3, and 4. After the final dose of study drug, subjects completed a follow-up period of two weeks and returned at the end of Weeks 5 and 6. Subjects may be treated with anti-depressant medications according to physician recommendations after completion of the Week 5 Visit.
(§3) Each dose of Compound 1 was supplied as two capsules, each containing 10 mg of active pharmaceutical ingredient (API). Matching placebo capsules identical in shape and color to the active capsules were used.
(§4) Secondary efficacy endpoints included: • Change from Baseline to Weeks 1, 2, and 3 in MADRS total score, • Change from Baseline to Weeks 1, 2, 3, and 4 in Clinical Global Impression-Severity (CGI-S) total score, • Change from Baseline to Week 5 and change from Week 4 to Week 5 in MADRS total score and CGI-S total score, • Change from Baseline to Week 2 and Week 4 in the 17-item Hamilton Depression Rating Scale (HAM D-17) total score, • Change from Baseline to Week 2 and Week 4 in the Sheehan Disability Scale (SDS), • Change from Baseline to Week 2 and Week 4 in the Quick Inventory of Depressive Symptomology-Self Report (QIDS-SR), and • Change from Baseline to Week 2 and Week 4 in the Quality of Life Enjoyment and Satisfaction Questionnaire-Short Form (Q-LES-Q-SF).

[2] = system: adult subjects with major depressive disorder (MDD); assay: Phase 2 placebo-controlled study in MDD, Sheehan Disability Scale (SDS); details: mITT; for Change from Baseline, SDS Total at Week 2, LSM Difference (95% CI) / Change from Baseline, SDS Total at Week 4, LSM Difference (95% CI): 20 mg/day vs Placebo; for Change from Baseline, SDS Total at Week 2, Mean (SD) / Change from Baseline, SDS Total at Week 2, Median / Change from Baseline, SDS Total at Week 4, Mean (SD) / Change from Baseline, SDS Total at Week 4, Median / SDS Total at Week 2, Mean (SD) / SDS Total at Week 2, Median / SDS Total at Week 4, Mean (SD) / SDS Total at Week 4, Median: 20 mg/day
Method: as §1, §2, §3, §4

[3] = system: adult subjects with major depressive disorder (MDD); assay: Phase 2 placebo-controlled study in MDD, Quick Inventory of Depressive Symptomology-Self Report (QIDS-SR); details: mITT; for Change from Baseline, QIDS Total at Week 2, LSM Difference (95% CI) / Change from Baseline, QIDS Total at Week 4, LSM Difference (95% CI): 20 mg/day vs Placebo; for Change from Baseline, QIDS Total at Week 2, Mean (SD) / Change from Baseline, QIDS Total at Week 2, Median / Change from Baseline, QIDS Total at Week 4, Mean (SD) / Change from Baseline, QIDS Total at Week 4, Median / QIDS Total at Week 2, Mean (SD) / QIDS Total at Week 2, Median / QIDS Total at Week 4, Mean (SD) / QIDS Total at Week 4, Median: 20 mg/day
Method: as §1, §2, §3, §4

COC1=CC(=O)C[C@@H](C)[C@]12Oc1c(Cl)c(-c3nnc(C)o3)cc(OC)c1C2=O [SP-624, (2S,6′R)-7-Chloro-2′,4-dimethoxy-6′-methyl-6-(5-methyl-1,3,4-oxadiazol-2-yl)-3H-spiro[1-benzofuran-2,1′-cyclohex [2]ene]-3,4′-dione]
CGI-S Total at Week 4, Mean (SD) [1]: 3.4 (1.27) | CGI-S Total at Week 4, Median [1]: 4 | Change from Baseline, CGI-S Total at Week 1, Mean (SD) [1]: −0.5 (0.85) | Change from Baseline, CGI-S Total at Week 1, Median [1]: 0 | Change from Baseline, CGI-S Total at Week 2, Mean (SD) [1]: −0.9 (1.16) | Change from Baseline, CGI-S Total at Week 2, Median [1]: −1 | Change from Baseline, CGI-S Total at Week 3, Mean (SD) [1]: −1.0 (1.16) | Change from Baseline, CGI-S Total at Week 3, Median [1]: −1 | Change from Baseline, CGI-S Total at Week 4, Mean (SD) [1]: −1.0 (1.27) | Change from Baseline, CGI-S Total at Week 4, Median [1]: −1 | Change from Baseline, SDS Total at Week 2, LSM Difference (95% CI) ([2]; Female): −1.7 (−3.3, −0.1) | Change from Baseline, SDS Total at Week 4, LSM Difference (95% CI) ([2]; Female): −2.0 (−3.8, −0.2) | Change from Baseline, SDS Total at Week 2, Mean (SD) ([2]; Female): −4.7 (5.74) | Change from Baseline, SDS Total at Week 2, Median ([2]; Female): −4 | Change from Baseline, SDS Total at Week 4, Mean (SD) ([2]; Female): −5.8 (6.70) | Change from Baseline, SDS Total at Week 4, Median ([2]; Female): −5 | SDS Total at Week 2, Mean (SD) ([2]; Female): 11.8 (6.24) | SDS Total at Week 2, Median ([2]; Female): 11 | SDS Total at Week 4, Mean (SD) ([2]; Female): 11.2 (6.98) | SDS Total at Week 4, Median ([2]; Female): 11 | Change from Baseline, SDS Total at Week 2, LSM Difference (95% CI) ([2]; Male): 2.6 (0.3, 4.8) | Change from Baseline, SDS Total at Week 4, LSM Difference (95% CI) ([2]; Male): 1.3 (−1.3, 3.8) | Change from Baseline, SDS Total at Week 2, Mean (SD) ([2]; Male): −2.4 (5.27) | Change from Baseline, SDS Total at Week 2, Median ([2]; Male): −2 | Change from Baseline, SDS Total at Week 4, Mean (SD) ([2]; Male): −5.0 (6.14) | Change from Baseline, SDS Total at Week 4, Median ([2]; Male): −4 | SDS Total at Week 2, Mean (SD) ([2]; Male): 12.8 (5.99) | SDS Total at Week 2, Median ([2]; Male): 13 | SDS Total at Week 4, Mean (SD) ([2]; Male): 10.5 (6.39) | SDS Total at Week 4, Median ([2]; Male): 10 | Change from Baseline, QIDS Total at Week 2, LSM Difference (95% CI) ([3]; Female): −1.1 (−2.4, 0.3) | Change from Baseline, QIDS Total at Week 4, LSM Difference (95% CI) ([3]; Female): −2.0 (−3.3, −0.6) | Change from Baseline, QIDS Total at Week 2, Mean (SD) ([3]; Female): −3.9 (4.37) | Change from Baseline, QIDS Total at Week 2, Median ([3]; Female): −3 | Change from Baseline, QIDS Total at Week 4, Mean (SD) ([3]; Female): −5.7 (4.76) | Change from Baseline, QIDS Total at Week 4, Median ([3]; Female): −5 | QIDS Total at Week 2, Mean (SD) ([3]; Female): 11.7 (4.87) | QIDS Total at Week 2, Median ([3]; Female): 12 | QIDS Total at Week 4, Mean (SD) ([3]; Female): 10.2 (4.69) | QIDS Total at Week 4, Median ([3]; Female): 10 | Change from Baseline, QIDS Total at Week 2, LSM Difference (95% CI) ([3]; Male): 1.2 (−0.9, 3.2) | Change from Baseline, QIDS Total at Week 4, LSM Difference (95% CI) ([3]; Male): 1.1 (−0.8, 3.0) | Change from Baseline, QIDS Total at Week 2, Mean (SD) ([3]; Male): −2.1 (5.50) | Change from Baseline, QIDS Total at Week 2, Median ([3]; Male): −2 | Change from Baseline, QIDS Total at Week 4, Mean (SD) ([3]; Male): −3.3 (4.46) | Change from Baseline, QIDS Total at Week 4, Median ([3]; Male): −4 | QIDS Total at Week 2, Mean (SD) ([3]; Male): 11.7 (5.27) | QIDS Total at Week 2, Median ([3]; Male): 12 | QIDS Total at Week 4, Mean (SD) ([3]; Male): 10.4 (4.55) | QIDS Total at Week 4, Median ([3]; Male): 11
